Drawing on patent publication US6645983B1, “Pharmaceutical compositions comprising 4-quinolones for treating cancers” (Laboratoire L. Lafon, priority 1999, dated 2003), this text covers viability, MTD and melting point for 11 compounds.

One data set has as its system A-427. Briefly: MTT test, cytotoxic activity on non-clonogenic cell lines. The data set is classed as cell-based. Conditions: Homo sapiens, 10^−5 M, 72 hours incubation, MTT, mean value, read-out: mean optical density, expressed as percentage relative to the mean optical density under the control condition (100%). The method, boiled down: (§1)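 Human cancer lines seeded at 20 000–50 000 cells/ml, allowed 24 h to attach, then exposed to compounds at 10^−5 to 10^−10 M versus solvent control.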
A general note: Formazan colour is commonly taken as a measure of viable cells.

The next data set relates to A549. Described as above. The data set is classed as cell-based. Conditions: Homo sapiens, 10^−5 M, 72 hours incubation, MTT, mean value, read-out: mean optical density, expressed as percentage relative to the mean optical density under the control condition (100%). The gist of the method: as §1
The next data set relates to HCT-15. The description is as above. The data set is classed as cell-based. Particulars: Homo sapiens, HCT-16, 10^−5 M, 72 hours incubation, MTT, mean value, read-out: mean optical density, expressed as percentage relative to the mean optical density under the control condition (100%). The gist of the method:
as §1

The next data set has as its system LoVo. The data set is described as above. The data set is classed as cell-based. Particulars: Homo sapiens, 10^−5 M, 72 hours incubation, MTT, mean value, read-out: mean optical density, expressed as percentage relative to the mean optical density under the control condition (100%). The method, boiled down:
as §1

In the next data set the test system is MCF7. Described as above. The data set is classed as cell-based. Conditions: Homo sapiens, 10^−5 M, 72 hours incubation, MTT, mean value, read-out: mean optical density, expressed as percentage relative to the mean optical density under the control condition (100%). The method, boiled down:
as §1

In another data set the test system is PC-3. The data set is described as above. The data set is classed as cell-based. Conditions: Homo sapiens, 10^−5 M, 72 hours incubation, MTT, mean value, read-out: mean optical density, expressed as percentage relative to the mean optical density under the control condition (100%). The gist of the method: as §1
A further data set concerns T-47D. The description is as above. Particulars: Homo sapiens, T47D; T-47D; 10^−5 M; 72 hours incubation; MTT; mean value; read-out: mean optical density, expressed as percentage relative to the mean optical density under the control condition (100%). The data set is classed as cell-based. The method, boiled down:
as §1

The subject of the next data set is U-373MG. Described as above. The data set is classed as cell-based. Conditions: Homo sapiens, U373 MG; U-373MG; 10^−5 M; 72 hours incubation; MTT; mean value; read-out: mean optical density, expressed as percentage relative to the mean optical density under the control condition (100%). The method, boiled down: as §1
A further data set has as its system U-87MG. The description is as above. The data set is classed as cell-based. Particulars: Homo sapiens; U-87MG; 10^−5 M; 72 hours incubation; MTT; mean value; read-out: mean optical density, expressed as percentage relative to the mean optical density under the control condition (100%). The gist of the method: as §1
The subject of the next data set is SW1088. The data set is described as above. The data set is classed as cell-based. Conditions: Homo sapiens, 10^−5 M, 72 hours incubation, MTT, mean value, read-out: mean optical density, expressed as percentage relative to the mean optical density under the control condition (100%). The method, boiled down: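 Human astrocytoma SW1088 cells seeded, grown 24 h at 37° C, 5% CO2, then exposed to compounds at 10^−5 to 10^−10 M versus solvent control. Viability by MTT reduction: 3 h MTT incubation, formazan dissolved in DMSO and read by spectrophotometry.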

Another data set relates to J82. The data set is described as above. The data set is classed as cell-based. Particulars: Homo sapiens, 10^−5 M, 72 hours incubation, MTT, mean value, read-out: mean optical density, expressed as percentage relative to the mean optical density under the control condition (100%). The method, boiled down:
(§2)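 Human bladder cancer lines were seeded at 20 000–50 000 cells/ml and, after 24 h, exposed to compounds at 10^−5 to 10^−10 M against a solvent control. Formazan was dissolved in DMSO and viability was read by spectrophotometric optical density.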

The next data set concerns T24. The data set is described as above. Particulars: Homo sapiens, T-24; T24; 10^−5 M; 72 hours incubation; MTT; mean value; read-out: mean optical density, expressed as percentage relative to the mean optical density under the control condition (100%). The data set is classed as cell-based. The method, boiled down:
as §2

Data set [1] in a line: Determination of the maximum tolerated dose (MTD). Conditions: B6D2F1/Jico, mouse, in vivo, ip; single intraperitoneal administration, doses 2.5 to 160 mg/kg, survival over 14 days. The method, boiled down:
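Mice were 4- to 6-week-old B6D2F1/Jico. They received a single intraperitoneal dose of 2.5 to 160 mg/kg, and survival and body weight were followed for 14 days. MTD is given in mg/kg and is capped at 160 mg/kg by default.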

As to `CCN(CC)c1cc(OC)cc2c1c(=O)c(-c1ccc(OC)cc1)cn2C` [CRL8437, 5-Diethylamino-7-methoxy-3-(4-methoxyphenyl)-1-methyl-1,4-dihydro-4-quinolinone], the viability at 10 µM in the data set on A-427 was determined as 108%; in the data set with A549, 102%; in the data set with HCT-15, 110%; in the data set on LoVo, 105%; in the data set on MCF7, 97.7%; in the data set on PC-3, 94.1%. For the same compound, the viability at 10 µM turned out to be 92.1% in the data set with T-47D; 93.2% in the data set with U-373MG; 99.4% in the data set with U-87MG; 99.7% in the data set on SW1088; 98.7% in the data set on J82; 93.1% in the data set with T24. Further, the MTD (as a rule, the largest dose that counted as tolerated) at 14 day in data set [1] is over 160 mg/kg.
Turning to `CC(=O)Oc1ccc(-c2cn(C)c3c(OC(C)=O)ccc(OC(C)=O)c3c2=O)cc1` [CRL8460, 5,8-Diacetoxy-3-[4-(acetoxy)phenyl]-1-methyl-1,4-dihydro-4-quinolmone acetate], the viability at 10 µM with A-427 is 24.9%; in the data set with A549 it was 43.1%; in the data set on HCT-15 it was 53.7%; with LoVo it was 25.5%; with MCF7, 35%; in the data set with PC-3, 35.2%. Besides, the viability at 10 µM stood at 56.2% in the data set on T-47D; 52.2% in the data set on U-373MG; 71.5% in the data set on U-87MG; 65.7% in the data set on SW1088; 45.7% in the data set with J82; 14.2% in the data set on T24. Moreover, the MTD at 14 day in data set [1] is over 160 mg/kg.
Regarding `COc1ccc(-c2cn(C)c3cc(OC)cc(N)c3c2=O)cc1` [CRL8461, 5-Amino-7-methoxy-3-(4-methoxyphenyl)-1-methyl-1,4-dihydro-4-quinolinone], the viability at 10 µM with A-427 turned out to be 90.5%; with A549, 99.7%; with HCT-15 it was 88.5%; in the data set with LoVo it was 92.7%; with MCF7 it was 68.2%; in the data set with PC-3, 91.9%. The viability at 10 µM with T-47D was 51.9%; in the data set with U-373MG, 91.6%; in the data set on U-87MG, 77.2%; with SW1088, 91.9%; in the data set on J82, 94.9%; in the data set with T24, 107%. This compound yielded an MTD at 14 day in data set [1] of over 160 mg/kg.
Consider `COc1ccc(-c2cn(C)c3cc(OC)cc(NCCN(C)C)c3c2=O)cc1` [CRL8462, 5-{[(Dimethylamino)ethyl]amino}-7-methoxy-3-(4-methoxyphenyl)-1-methyl-1,4-dihydro-4-quinolinone], for which the viability at 10 µM is 77.1% with A-427; 86.8% in the data set on A549; 77.4% in the data set on HCT-15; 84.6% in the data set with LoVo; 89.4% in the data set on MCF7; 84% with PC-3. Further, the viability at 10 µM is 92.2% in the data set on T-47D; 111% in the data set with U-373MG; 195% with U-87MG; 105% in the data set with SW1088; 105% with J82; 111% in the data set with T24. This compound also showed an MTD at 14 day in data set [1] of over 160 mg/kg.
For the compound `COc1ccc(-c2cn(C)c3cc(OC)ccc3c2=O)cc1` [CRL8464, 7-Methoxy-3-(4-methoxyphenyl)-1-methyl-1,4-dihydro-4-quinolinone], the viability at 10 µM in the data set on A-427 amounted to 102%; with A549 it was 91.3%; in the data set with HCT-15 it was 111%; with LoVo, 101%; in the data set on MCF7, 99.8%; in the data set with PC-3 it was 97.1%. Besides, the viability at 10 µM was 110% in the data set with T-47D; 118% in the data set on U-373MG; 105% in the data set on U-87MG; 95.6% in the data set with SW1088; 95.4% in the data set on J82; 105% with T24. The compound further yielded an MTD at 14 day in [1] of over 160 mg/kg.
For the compound `CCOC(=O)Cn1cc(-c2ccc(OC)cc2)c(=O)c2ccc(OC)cc21` [CRL8465, Ethyl 2-[7-methoxy-3-(4-methoxyphenyl)-4-oxo-1,4-dihydro-1-quinolinyl]acetate], the viability at 10 µM with A-427 came to 85.4%; in the data set on A549, 80.1%; with HCT-15, 165%; with LoVo it was 110%; in the data set with MCF7 it was 94.3%; with PC-3 it was 96.9%. Further, the viability at 10 µM in the data set on T-47D is 94.4%; in the data set on U-373MG, 100%; with U-87MG, 105%; in the data set with SW1088, 89.8%; with J82, 93.6%; with T24, 91.2%. The MTD at 14 day in data set [1] was over 160 mg/kg.
`CCN(CC)C(=O)Cn1cc(-c2ccc(OC)cc2)c(=O)c2ccc(OC)cc21` [CRL8466, N,N-Diethyl-2-[7-methoxy-3-(4-methoxyphenyl)-4-oxo-1,4-dihydro-1-quinolinyl]acetamide]: the viability at 10 µM with A-427 turned out to be 97.5%; in the data set on A549 it was 101%; in the data set on HCT-15 it was 96.1%; with LoVo, 98.9%; in the data set with MCF7 it was 108%; with PC-3, 102%. Besides, the viability at 10 µM with T-47D came out at 95.2%; with U-373MG, 59.4%; in the data set with U-87MG, 97.2%; with SW1088 it was 102%; in the data set with J82, 93.1%; in the data set with T24, 69.5%. Further, the MTD at 14 day in data set [1] was over 160 mg/kg.
Regarding `COc1ccc(-c2cn(CCC#N)c3cc(OC)ccc3c2=O)cc1` [CRL8467, 3-[7-Methoxy-3-(4-methoxyphenyl)-4-oxo-1,4-dihydro-1-quinolinyl]propanenitrile], the viability at 10 µM turned out to be 90% in the data set on A-427; 90.8% in the data set on A549; 108% in the data set with HCT-15; 95.8% in the data set with LoVo; 98.3% with MCF7; 98.4% in the data set with PC-3. The viability at 10 µM in the data set with T-47D came to 100%; in the data set on U-373MG, 108%; in the data set on U-87MG, 95.3%; in the data set on SW1088, 101%; in the data set on J82 it was 96.3%; in the data set on T24 it was 94.6%. In addition, in data set [1], the MTD at 14 day was over 160 mg/kg.
`CCOC(=O)CCn1cc(-c2ccc(OC)cc2)c(=O)c2ccc(OC)cc21` [CRL8468, Ethyl 3-[7-methoxy-3-(4-methoxyphenyl)-4-oxo-1,4-dihydro-1-quinolinyl]propanoate]: the viability at 10 µM in the data set with A-427 stood at 69.7%; in the data set with A549, 93.6%; in the data set on HCT-15 it was 111%; in the data set with LoVo, 97.2%; in the data set with MCF7, 79.1%; with PC-3 it was 95%. The viability at 10 µM with T-47D is 92.2%; with U-373MG, 107%; with U-87MG, 92.7%; with SW1088 it was 104%; in the data set with J82 it was 91.9%; in the data set on T24 it was 98.5%. Moreover, in data set [1], the MTD at 14 day was over 160 mg/kg.
Regarding `COc1ccc(-c2cn(CCCC#N)c3cc(OC)ccc3c2=O)cc1` [CRL8470, 4-[7-Methoxy-3-(4-methoxyphenyl)-4-oxo-1,4-dihydro-1-quinolinyl]butanenitrile], the viability at 10 µM was determined as 103% in the data set with A-427; 80.2% in the data set on A549; 95.5% with HCT-15; 86.6% in the data set on LoVo; 92.8% in the data set with MCF7; 94% in the data set with PC-3. Also, the viability at 10 µM with T-47D is 88.8%; in the data set with U-373MG, 104%; in the data set with U-87MG, 97.2%; in the data set with SW1088, 92.5%; with J82, 85.6%; with T24, 101%. Moreover, in data set [1], the MTD at 14 day is over 160 mg/kg.
`COc1ccc(-c2cn(CCc3nnn[nH]3)c3cc(OC)ccc3c2=O)cc1` [CRL8474, 7-Methoxy-3-(4-methoxyphenyl)-1-[2-(2H-1,2,3,4-tetrazol-5-yl)ethyl]-1,4-dihydro-4-quinolinone]: the melting point – broadly, the temperature of the solid-liquid transition – fell in the range of 245 to 246 °C.
